Measured values published in PMC3961306, “Comparison of the Cancer Gene Targeting and Biochemical Selectivities of All Targeted Kinase Inhibitors Approved for Clinical Use” (PLoS ONE, 2014).

What was measured:
Test in all cases: Kinase profiling in a biochemical assay panel (mobility shift assays and ELISA), %-inhibition at 1 μM; selectivity entropy
[1] = target: panel of more than 300 wild-type and mutant kinases (313 kinase panel) (Homo sapiens, UniProt Q16654)
[2] = target: T1, panel of more than 300 wild-type and mutant kinases (313 kinase panel) (Homo sapiens, UniProt Q96KB5)
T1 sequence (Q96KB5 1-322): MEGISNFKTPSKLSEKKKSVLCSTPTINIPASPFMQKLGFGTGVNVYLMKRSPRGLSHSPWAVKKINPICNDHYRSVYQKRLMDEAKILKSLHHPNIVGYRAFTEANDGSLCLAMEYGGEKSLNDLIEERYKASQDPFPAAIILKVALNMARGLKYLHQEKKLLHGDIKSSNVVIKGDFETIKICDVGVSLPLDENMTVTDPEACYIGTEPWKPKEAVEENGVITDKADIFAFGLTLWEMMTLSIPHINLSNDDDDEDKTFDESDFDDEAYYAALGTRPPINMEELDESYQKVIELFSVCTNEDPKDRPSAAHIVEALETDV

[3] = target: panel of more than 300 wild-type and mutant kinases (313 kinase panel) (Homo sapiens, UniProt P31749)
[4] = target: panel of more than 300 wild-type and mutant kinases (313 kinase panel) (Homo sapiens, UniProt Q04759)
[5] = target: panel of more than 300 wild-type and mutant kinases (313 kinase panel) (Homo sapiens, UniProt Q13233)
[6] = target: panel of more than 300 wild-type and mutant kinases (313 kinase panel) (Homo sapiens, UniProt Q9Y3S1)
[7] = target: T2, panel of more than 300 wild-type and mutant kinases (313 kinase panel) (Homo sapiens, UniProt P15735)
T2 sequence (P15735 1-406): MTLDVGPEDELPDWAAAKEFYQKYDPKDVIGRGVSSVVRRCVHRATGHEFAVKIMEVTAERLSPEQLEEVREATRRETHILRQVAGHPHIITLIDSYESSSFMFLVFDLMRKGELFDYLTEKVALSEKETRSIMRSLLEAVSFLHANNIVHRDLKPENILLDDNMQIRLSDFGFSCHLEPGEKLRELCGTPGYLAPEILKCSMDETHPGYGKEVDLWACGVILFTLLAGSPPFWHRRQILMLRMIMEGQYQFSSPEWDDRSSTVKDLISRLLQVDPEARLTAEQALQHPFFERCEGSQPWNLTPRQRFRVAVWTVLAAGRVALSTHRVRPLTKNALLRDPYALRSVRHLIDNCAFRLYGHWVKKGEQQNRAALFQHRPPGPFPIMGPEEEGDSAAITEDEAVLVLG

[8] = target: T3, panel of more than 300 wild-type and mutant kinases (313 kinase panel) (Homo sapiens, UniProt Q12866)
T3 sequence (Q12866 21-999): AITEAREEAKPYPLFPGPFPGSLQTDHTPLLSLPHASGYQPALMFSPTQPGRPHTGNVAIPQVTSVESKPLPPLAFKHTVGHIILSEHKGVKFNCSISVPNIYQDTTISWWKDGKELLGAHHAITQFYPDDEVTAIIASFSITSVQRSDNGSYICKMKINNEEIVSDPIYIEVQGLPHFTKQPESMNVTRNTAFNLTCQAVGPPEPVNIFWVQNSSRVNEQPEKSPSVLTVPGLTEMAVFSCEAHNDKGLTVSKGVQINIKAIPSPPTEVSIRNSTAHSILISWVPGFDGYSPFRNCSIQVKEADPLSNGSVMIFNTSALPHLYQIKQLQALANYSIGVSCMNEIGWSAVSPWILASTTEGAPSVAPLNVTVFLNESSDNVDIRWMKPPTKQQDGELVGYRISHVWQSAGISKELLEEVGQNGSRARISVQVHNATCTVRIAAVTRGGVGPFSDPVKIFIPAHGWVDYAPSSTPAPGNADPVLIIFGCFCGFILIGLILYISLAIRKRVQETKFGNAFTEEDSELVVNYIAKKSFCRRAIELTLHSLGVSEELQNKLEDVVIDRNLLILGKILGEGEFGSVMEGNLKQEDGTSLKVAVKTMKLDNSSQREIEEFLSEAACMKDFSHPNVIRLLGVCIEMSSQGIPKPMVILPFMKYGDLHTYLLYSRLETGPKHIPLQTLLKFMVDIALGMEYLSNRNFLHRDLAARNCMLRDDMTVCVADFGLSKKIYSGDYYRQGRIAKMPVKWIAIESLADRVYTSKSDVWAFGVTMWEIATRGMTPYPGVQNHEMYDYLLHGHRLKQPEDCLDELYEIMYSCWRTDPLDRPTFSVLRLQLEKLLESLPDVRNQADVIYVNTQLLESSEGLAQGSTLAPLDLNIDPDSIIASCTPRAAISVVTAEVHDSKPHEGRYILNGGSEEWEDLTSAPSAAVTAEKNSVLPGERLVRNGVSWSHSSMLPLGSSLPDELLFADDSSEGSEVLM

[9] = target: panel of more than 300 wild-type and mutant kinases (313 kinase panel) (Homo sapiens, UniProt Q8IU85)
[10] = kinase MAP3K1, compound at 1 μM

Chain of panel of more than 300 wild-type and mutant kinases (313 kinase panel) (Homo sapiens, UniProt P31749) (P31749 whole entry, change not shown): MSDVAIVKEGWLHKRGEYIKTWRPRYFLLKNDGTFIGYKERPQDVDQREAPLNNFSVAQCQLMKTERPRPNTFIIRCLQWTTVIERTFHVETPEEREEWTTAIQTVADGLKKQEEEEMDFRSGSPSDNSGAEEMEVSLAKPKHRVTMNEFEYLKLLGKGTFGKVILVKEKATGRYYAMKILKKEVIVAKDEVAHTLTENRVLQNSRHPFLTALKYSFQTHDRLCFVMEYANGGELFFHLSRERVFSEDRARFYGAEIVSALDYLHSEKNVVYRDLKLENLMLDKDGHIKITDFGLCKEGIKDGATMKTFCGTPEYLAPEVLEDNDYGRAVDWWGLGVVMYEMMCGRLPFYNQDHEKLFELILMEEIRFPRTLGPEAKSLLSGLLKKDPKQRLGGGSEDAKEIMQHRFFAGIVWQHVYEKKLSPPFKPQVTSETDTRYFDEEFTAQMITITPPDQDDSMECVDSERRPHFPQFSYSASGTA
Chain of panel of more than 300 wild-type and mutant kinases (313 kinase panel) (Homo sapiens, UniProt Q13233) (Q13233 whole entry, change not shown): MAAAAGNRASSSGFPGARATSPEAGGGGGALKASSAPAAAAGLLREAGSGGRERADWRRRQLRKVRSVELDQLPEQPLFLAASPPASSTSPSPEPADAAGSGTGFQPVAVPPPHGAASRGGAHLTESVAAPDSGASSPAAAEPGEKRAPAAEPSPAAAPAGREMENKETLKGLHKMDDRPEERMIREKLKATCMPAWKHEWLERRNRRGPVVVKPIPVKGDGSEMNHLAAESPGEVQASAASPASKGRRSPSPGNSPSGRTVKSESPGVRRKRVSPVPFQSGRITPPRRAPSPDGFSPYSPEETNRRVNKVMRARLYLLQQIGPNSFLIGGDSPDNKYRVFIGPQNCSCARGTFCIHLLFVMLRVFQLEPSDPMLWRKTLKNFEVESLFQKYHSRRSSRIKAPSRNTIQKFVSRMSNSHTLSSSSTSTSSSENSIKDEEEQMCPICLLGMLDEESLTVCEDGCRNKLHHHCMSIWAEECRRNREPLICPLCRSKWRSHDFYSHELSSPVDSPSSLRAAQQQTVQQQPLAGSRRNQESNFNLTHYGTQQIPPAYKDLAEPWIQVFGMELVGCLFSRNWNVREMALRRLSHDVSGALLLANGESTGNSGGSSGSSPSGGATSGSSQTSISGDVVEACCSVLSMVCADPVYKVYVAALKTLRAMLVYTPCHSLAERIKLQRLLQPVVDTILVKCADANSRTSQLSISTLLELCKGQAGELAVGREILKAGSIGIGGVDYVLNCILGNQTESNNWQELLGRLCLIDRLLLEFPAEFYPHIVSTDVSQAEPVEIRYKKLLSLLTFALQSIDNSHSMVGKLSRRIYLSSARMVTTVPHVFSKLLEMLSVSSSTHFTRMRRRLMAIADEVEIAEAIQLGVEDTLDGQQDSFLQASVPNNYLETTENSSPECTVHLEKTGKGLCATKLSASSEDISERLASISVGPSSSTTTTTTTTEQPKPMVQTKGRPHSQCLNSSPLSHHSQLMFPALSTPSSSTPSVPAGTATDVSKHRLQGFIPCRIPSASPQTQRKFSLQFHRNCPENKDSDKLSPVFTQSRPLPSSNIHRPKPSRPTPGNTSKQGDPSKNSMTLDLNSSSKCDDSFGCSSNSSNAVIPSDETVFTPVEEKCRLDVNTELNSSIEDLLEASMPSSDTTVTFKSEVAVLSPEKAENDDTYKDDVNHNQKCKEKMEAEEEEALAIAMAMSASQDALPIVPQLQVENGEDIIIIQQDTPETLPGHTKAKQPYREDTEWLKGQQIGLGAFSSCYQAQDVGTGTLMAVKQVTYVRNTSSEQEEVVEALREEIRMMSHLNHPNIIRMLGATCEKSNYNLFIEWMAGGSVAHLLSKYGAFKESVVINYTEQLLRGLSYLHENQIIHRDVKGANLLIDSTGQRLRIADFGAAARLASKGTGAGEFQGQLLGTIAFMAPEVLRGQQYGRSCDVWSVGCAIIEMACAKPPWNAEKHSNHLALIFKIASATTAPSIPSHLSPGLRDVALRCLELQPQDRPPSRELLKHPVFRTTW
Chain of panel of more than 300 wild-type and mutant kinases (313 kinase panel) (Homo sapiens, UniProt Q04759) (Q04759 whole entry, change not shown): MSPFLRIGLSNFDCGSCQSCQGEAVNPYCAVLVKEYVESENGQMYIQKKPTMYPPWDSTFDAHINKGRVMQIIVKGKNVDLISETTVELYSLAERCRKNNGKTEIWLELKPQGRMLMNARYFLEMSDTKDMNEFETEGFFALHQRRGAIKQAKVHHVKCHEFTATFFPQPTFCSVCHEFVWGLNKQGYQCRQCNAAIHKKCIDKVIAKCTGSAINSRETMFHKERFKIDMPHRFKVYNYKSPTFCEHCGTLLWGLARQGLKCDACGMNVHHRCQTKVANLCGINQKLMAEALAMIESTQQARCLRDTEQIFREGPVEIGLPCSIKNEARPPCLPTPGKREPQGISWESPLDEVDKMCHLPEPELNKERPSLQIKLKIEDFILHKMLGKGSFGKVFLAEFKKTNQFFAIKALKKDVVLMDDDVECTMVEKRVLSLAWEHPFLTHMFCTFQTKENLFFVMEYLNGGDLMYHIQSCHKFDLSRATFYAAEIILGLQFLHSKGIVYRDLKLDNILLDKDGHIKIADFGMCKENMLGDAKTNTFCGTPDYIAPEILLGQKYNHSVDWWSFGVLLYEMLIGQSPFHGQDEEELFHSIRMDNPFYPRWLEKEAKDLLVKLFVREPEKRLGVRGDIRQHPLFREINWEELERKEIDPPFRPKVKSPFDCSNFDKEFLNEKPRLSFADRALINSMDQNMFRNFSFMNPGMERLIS

Structure (SMILES)	%-inhibition of PDHK4 ([1]; kinase PDHK4, 1 μM)	%-inhibition of PBK ([2]; kinase PBK, 1 μM)	%-inhibition of PKCθ ([4]; kinase PKCθ, 1 μM)	%-inhibition of MAP3K1 [5, 10]	%-inhibition of WNK2 ([6]; kinase WNK2, compound at 1 μM)	%-inhibition of PHKG2 ([7]; kinase PHKG2, 1 μM)	other results
CN(C)C/C=C/C(=O)Nc1cc2c(Nc3ccc(F)c(Cl)c3)ncnc2cc1O[C@H]1CCOC1 [afatinib]	-3.28%	-3%					
COc1cc(Nc2c(C#N)cnc3cc(OCCCN4CCN(C)CC4)c(OC)cc23)c(Cl)cc1Cl [bosutinib]		-24%	84%	60%	4%		%-inhibition, AKT1 ([3]; 1 µM): -5.47%
COc1cc2nccc(Oc3ccc(NC(=O)C4(C(=O)Nc5ccc(F)cc5)CC4)cc3)c2cc1OC [cabozantinib]	3.76%	-4.29%	-4.28%	36%	6.43%	-0.305%	%-inhibition, AKT1 ([3]; kinase AKT1, 1 μM compound): -4.52%; %-inhibition of MER ([8]; kinase MER, compound at 1 μM): 100%; %-inhibition, CaMK1δ ([9]; kinase CaMK1δ, 1 μM compound): -1.37%
C[C@@H](Oc1cc(-c2cnn(C3CCNCC3)c2)cnc1N)c1c(Cl)ccc(F)c1Cl [crizotinib]	-3.76%	-14%	-3%	28%	-4%	10%	%-inhibition, AKT1 ([3]; kinase AKT1, 1 μM compound): -7%; %-inhibition, CaMK1δ ([9]; kinase CaMK1δ, 1 μM compound): -4%
CC(C)(C)c1nc(-c2cccc(NS(=O)(=O)c3c(F)cccc3F)c2F)c(-c2ccnc(N)n2)s1 [dabrafenib]	-1%	12%		-40%	0.686%	2%	%-inhibition of MER ([8]; kinase MER, compound at 1 μM): -0.876%
Cc1nc(Nc2ncc(C(=O)Nc3c(C)cccc3Cl)s2)cc(N2CCN(CCO)CC2)n1 [dasatinib]					20%		
C#Cc1cccc(Nc2ncnc3cc(OCCOC)c(OCCOC)cc23)c1 [erlotinib]							%-inhibition of PHKG2 ([7]; 1 µM): 4%; %-inhibition, AKT1 ([3]; 1 µM): 12%; %-inhibition of PKCθ ([4]; 1 µM): 4.46%; %-inhibition of MER ([8]; 1 µM): 10%; %-inhibition of MAP3K1 ([5]; 1 µM): 6%; %-inhibition of PDHK4 ([1]; 1 µM): -9%; %-inhibition, CaMK1δ ([9]; 1 µM): -3.68%; %-inhibition of PBK ([2]; 1 µM): 4.3%; %-inhibition of WNK2 ([6]; 1 µM): -7%
